The supplement of paper PMC10627819

What was measured:
S. aureus Newman = assay: Bliss interaction score (quartile over a dose matrix) (fitness difference); higher = more antagonism (negative = synergy)
Method in brief: (§1)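 The Bliss score was calculated by subtracting the expected fitness, the product of single-drug values, from the observed fitness. OD595 at entry into stationary phase, over the plate's robust no-drug mean and capped at 1, served as the fitness readout. Single-drug values were inferred from combination data, and scores are summarised by quartiles across technical, biological and donor/recipient replicates.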

B. subtilis 168 = assay: as above
Method in brief: as §1

S. aureus DSM 20231 = assay: as above
Method in brief: as §1

S. pneumoniae D39V [1] = assay: as above
Method in brief: as §1

S. pneumoniae D39V [2] = assay: fitness (endpoint OD595 vs no drug) (fraction); higher = more growth
Method in brief: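 With the first reading as background, OD595 was measured every 30 min for 14 h in 384-well plates kept at 37 °C and inoculated at OD595 0.01. TSB, LB Lennox or CY was the medium. Fitness is the optical density at the transition into stationary phase divided by the robust mean of no-drug control wells, with a cap of 1.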
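Throughout, for Bliss interaction score (quartile over a dose matrix): first quartile when negative (synergy) and third quartile when positive (antagonism).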

CC1=C(C(=O)O)N2C(=O)[C@@H](NC(=O)[C@H](N)c3ccccc3)[C@H]2SC1 [Cephalexin] + CO[C@H]1/C=C/O[C@@]2(C)Oc3c(C)c(O)c4c(O)c(c(/C=N/N5CCN(C)CC5)c(O)c4c3C2=O)NC(=O)/C(C)=C\C=C\[C@H](C)[C@H](O)[C@@H](C)[C@@H](O)[C@@H](C)[C@H](OC(C)=O)[C@@H]1C [Rifampicin]
Settings	Bliss interaction score
B. subtilis 168	0.12
S. aureus DSM 20231	0.0837
S. aureus Newman	0.0156
S. pneumoniae D39V [1]	-0.065

fitness, S. pneumoniae D39V [2], one replicate
Settings	first compound 0.125 µg/mL	first compound 0.25 µg/mL	first compound 0.5 µg/mL	first compound 1 µg/mL	first compound 2 µg/mL	first compound 4 µg/mL
partner 0.025 µg/mL	–	–	–	0.258	0.0265	0.0322
partner 0.05 µg/mL	0.714	0.774	0.7	–	–	–
partner 0.1 µg/mL	0.314	0.257	0.225	–	–	–
partner 0.2 µg/mL	0.207	0.141	0.108	0	0	0

fitness, S. pneumoniae D39V [2]
Settings	first compound 1 µg/mL	first compound 2 µg/mL	first compound 4 µg/mL
partner 0.05 µg/mL	0.301	0.0661	0.0542
partner 0.1 µg/mL	0.14	0.0642	0.0638

CC1=C(C(=O)O)N2C(=O)[C@@H](NC(=O)[C@H](N)c3ccccc3)[C@H]2SC1 [Cephalexin] + Clc1ccc(COC(Cn2ccnc2)c2ccc(Cl)cc2Cl)c(Cl)c1 [Miconazole]
Settings	Bliss interaction score
B. subtilis 168	0.0898
S. aureus DSM 20231	0.0471
S. aureus Newman	0.063
S. pneumoniae D39V [1]	-0.0715

fitness, S. pneumoniae D39V [2], one replicate
Settings	first compound 0.125 µg/mL	first compound 0.25 µg/mL	first compound 0.5 µg/mL
partner 1.25 µg/mL	0.987	0.878	0.858
partner 2.5 µg/mL	0.885	0.826	0.819
partner 5 µg/mL	0.89	0.867	0.893

fitness, S. pneumoniae D39V [2]
Settings	first compound 1 µg/mL	first compound 2 µg/mL	first compound 4 µg/mL
partner 1.073 µg/mL	–	–	0.0455
partner 2.145 µg/mL	–	–	0.0466
partner 4.29 µg/mL	0.482	0.37	0.234

CC1=C(C(=O)O)N2C(=O)[C@@H](NC(=O)[C@H](N)c3ccccc3)[C@H]2SC1 [Cephalexin] + O=C1CN(/N=C/c2ccc([N+](=O)[O-])o2)C(=O)N1 [Nitrofurantoin]
Settings	Bliss interaction score
B. subtilis 168	0.0716
S. aureus DSM 20231	0.145
S. aureus Newman	0.0656
S. pneumoniae D39V [1]	0.168

fitness, S. pneumoniae D39V [2], one replicate
Settings	first compound 0.125 µg/mL	first compound 0.25 µg/mL	first compound 0.5 µg/mL	first compound 1 µg/mL	first compound 2 µg/mL	first compound 4 µg/mL
partner 2 µg/mL	0.934	0.942	0.958	–	–	–
partner 4 µg/mL	0.92	0.958	0.953	–	–	–
partner 5.14 µg/mL	–	–	–	0.716	0.243	0.0653
partner 8 µg/mL	0.756	0.775	0.805	–	–	–

fitness, S. pneumoniae D39V [2]
Settings	first compound 1 µg/mL	first compound 2 µg/mL	first compound 4 µg/mL
partner 1.285 µg/mL	0.762	0.226	0.0641
partner 2.57 µg/mL	0.768	0.336	0.0742

Clc1ccc(COC(Cn2ccnc2)c2ccc(Cl)cc2Cl)c(Cl)c1 (stereo not given) [Miconazole] + CO[C@@H]1[C@@H](OC(N)=O)[C@@H](O)[C@H](Oc2ccc3c(O)c(NC(=O)c4ccc(O)c(CC=C(C)C)c4)c(=O)oc3c2C)OC1(C)C [Novobiocin]
Settings	Bliss interaction score
B. subtilis 168	0.0735
S. aureus DSM 20231	0.0483
S. aureus Newman	0.0415
S. pneumoniae D39V [1]	0.121

Clc1ccc(COC(Cn2ccnc2)c2ccc(Cl)cc2Cl)c(Cl)c1 (stereo not given) [Miconazole] + CO[C@@]12[C@H](COC(N)=O)C3=C(C(=O)C(C)=C(N)C3=O)N1C[C@@H]1N[C@@H]12 [MitomycinC]
Settings	Bliss interaction score
B. subtilis 168	-0.066
S. aureus DSM 20231	0.0383
S. aureus Newman	-0.188
S. pneumoniae D39V [1]	0.0662

Clc1ccc(COC(Cn2ccnc2)c2ccc(Cl)cc2Cl)c(Cl)c1 (stereo not given) [Miconazole] + COc1cc(Cc2cnc(N)nc2N)cc(OC)c1OC [Trimethoprim]
Settings	Bliss interaction score
B. subtilis 168	0.0906
S. aureus DSM 20231	0.0514
S. aureus Newman	0.0486
S. pneumoniae D39V [1]	-0.117

Clc1ccc(COC(Cn2ccnc2)c2ccc(Cl)cc2Cl)c(Cl)c1 (stereo not given) [Miconazole] + Oc1cc(Cl)ccc1Oc1ccc(Cl)cc1Cl [Triclosan]
Settings	Bliss interaction score
B. subtilis 168	0.0625
S. aureus DSM 20231	0.0712
S. aureus Newman	0.0222
S. pneumoniae D39V [1]	0.0535

Cc1onc(-c2ccccc2)c1C(=O)N[C@@H]1C(=O)N2[C@@H]1SC(C)(C)[C@@H]2C(=O)O [Oxacillin] + C/C(=C\C(=O)OCCCCCCCCC(=O)O)C[C@@H]1OC[C@H](C[C@@H]2O[C@H]2[C@@H](C)[C@H](C)O)[C@@H](O)[C@H]1O [Pseudomonic acid]
Settings	Bliss interaction score
B. subtilis 168	0.0424
S. aureus DSM 20231	0.0247
S. aureus Newman	0.0232
S. pneumoniae D39V [1]	0.158
